Among the data in ChEMBL document CHEMBL4334502, “Basimarols A, B, and C, Highly Oxygenated Pimarane Diterpenoids from Basilicum polystachyon” (J Nat Prod, 2019) are IC50 and Activity values, retold here.

Activity calls are given as the source filed them. The rule behind the calls is not given here.

One experiment concerns NFF. Kind of experiment: Cytotoxicity against human NFF cells assessed as reduction in cell viability incubated for 6 days by SRB assay. Type of experiment: cell-based. As to conditions: 144 h.
The next experiment concerns MCF7. The experiment is described as follows: Cytotoxicity against human MCF7 cells assessed as reduction in cell viability incubated for 6 days by SRB assay. Type of experiment: functional, cell-based. Conditions: MCF7, 144 h.
In the next experiment the test system is SK-MEL-28. Kind of experiment: Cytotoxicity against human SK-MEL-28 cells assessed as reduction in cell viability incubated for 6 days by SRB assay. The format is functional, cell-based. Conditions: SK-MEL-28, 144 h.
Another experiment deals with Dengue virus. Kind of experiment: Antiviral activity against DENV infected in African green monkey Vero cells assessed as reduction in plague formation incubated for 72 hrs by immunofluorescence assay. Type of experiment: functional, organism-based.
Another experiment relates to Kunjin virus. The experiment is described as follows: Antiviral activity against West Nile virus Kunjin infected in African green monkey Vero cells assessed as reduction in plague formation incubated for 72 hrs by immunofluorescence assay. The format is functional.
A further experiment relates to Influenza A virus H3N2. Kind of experiment: Antiviral activity against influenza virus H3N2 infected in MDCK cells assessed as reduction in plague formation incubated for 72 hrs by immunofluorescence assay. Type of experiment: functional, organism-based.
In another experiment the test system is Influenza A virus. The experiment is described as follows: Antiviral activity against influenza virus H1N1 infected in MDCK cells assessed as reduction in plague formation incubated for 72 hrs by immunofluorescence assay. The format is functional, organism-based.

As usually defined, the IC50 is the concentration at which inhibition is half-maximal. As to `C=C[C@]1(C)C[C@@]2(O)[C@H](CC1=O)C13CO[C@@](O)([C@H]1[C@@](C)(COC(=O)c1ccccc1)CC[C@H]3O)[C@H]2OC(C)=O`, the half-inhibitory concentration (IC50) in the experiment with NFF stood at 53 µM; in the experiment with MCF7 it was 57 µM; in the experiment with SK-MEL-28, 70 µM. Moreover, the outcome in the experiment with Dengue virus was Active.
Regarding `C=C1CC[C@@H]2[C@](C)(CO)[C@H](O)CC[C@@]2(C)[C@@H]1C/C=C1/C(=O)OC[C@H]1O` [ANDROGRAPHOLIDE], the IC50 in the experiment with Kunjin virus came out at 100 µM. For the same molecule, the outcome in the experiment on Influenza A virus H3N2 and with Influenza A virus was inactive. In addition, the outcome in the experiment on Dengue virus was Active.
As for `C=C[C@]1(C)C[C@]2(O)[C@H](OC(C)=O)C(=O)[C@H]3C(C)(C)CC[C@H](O)[C@]3(COC(C)=O)[C@H]2C[C@@H]1OC(C)=O`, the 50% inhibitory concentration (IC50) is above 200 µM in the experiment with NFF, 179 µM in the experiment on MCF7 and above 200 µM with SK-MEL-28. For the same molecule, in the experiment on Dengue virus, the outcome was Active.
Take `C=C[C@]1(C)C[C@@]23O[C@@H](OC(C)=O)C4([C@H]2C[C@@H]1O)[C@@H](O)CCC(C)(C)[C@@H]4C(=O)[C@H]3OC(C)=O`: the IC50 in the experiment on NFF turned out to be 95 µM; in the experiment with MCF7 it was 86 µM; with SK-MEL-28, 158 µM. For the same molecule, the result in the experiment on Dengue virus was Active.
`C=C/C(C)=C/C[C@H]1C(C)=CC[C@@H]2[C@]1(C)CCC[C@@]2(C)C(=O)O`: the half-inhibitory concentration (IC50) in the experiment with Kunjin virus was found to be 1.2 µM; with Influenza A virus H3N2, 18 µM; in the experiment with Influenza A virus it was 4.1 µM; with Dengue virus it was 1.4 µM.
